Source: the supplement of paper PMC10307832

Assays:
Test in all cases: relative viability (nuclei count vs DMSO), 5 days (fraction); higher = more cells survive
[1] = compound: Cc1ccc2nc(NCCN)c3ncc(C)n3c2c1 + Cc1nc(NC(=O)N2CCC[C@H]2C(N)=O)sc1-c1ccnc(C(C)(C)C(F)(F)F)c1 [Alpelisib] (partner 2 µM)
How it was run: (§1)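 Lung cancer cell lines were seeded in 1536-well plates and dosed by pin tool the next day, with either a single drug or a fixed anchor-drug dose combined with five library-drug doses (not always all listed) spaced in √10 steps. Five days later, one step fixed the cells and stained their nuclei (final 0.05% Triton X-100, 1% formaldehyde, 1 ug/ml Hoechst), and nuclei were counted on 4× images. Relative viability is the nuclei count in treated wells divided by the count in vehicle wells, and each value is the median of duplicate plates.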

[2] = compound: O=C(/C=C/c1ccccc1)NC(NC(=S)Nc1cccc2cccnc12)C(Cl)(Cl)Cl [Salubrinal] + N=C(N)NC(=N)NCCc1ccccc1 [Phenformin] (partner 250 µM)
How it was run: as §1

[3] = compound: Cc1ccc2nc(NCCN)c3ncc(C)n3c2c1 + Cc1nc(Nc2ncc(C(=O)Nc3c(C)cccc3Cl)s2)cc(N2CCN(CCO)CC2)n1 [Dasatinib] (partner 0.075 µM)
How it was run: as §1

[4] = compound: O=C(/C=C/c1ccccc1)NC(NC(=S)Nc1cccc2cccnc12)C(Cl)(Cl)Cl [Salubrinal] + COc1cc2c(Oc3ccc(NC(=O)C4(C(=O)Nc5ccc(F)cc5)CC4)cc3F)ccnc2cc1OCCCN1CCOCC1 [Foretinib] (partner 0.25 µM)
How it was run: as §1

Row | Cell Line | relative viability ([1]; first compound 0.04 µM) | relative viability ([1]; first compound 0.1265 µM) | relative viability ([1]; first compound 0.4 µM) | relative viability ([1]; first compound 1.265 µM) | relative viability ([1]; first compound 4 µM) | relative viability ([2]; first compound 0.08 µM) | relative viability ([2]; first compound 0.253 µM) | relative viability ([2]; first compound 0.8 µM) | relative viability ([2]; first compound 2.53 µM) | relative viability ([2]; first compound 8 µM) | relative viability ([3]; first compound 0.04 µM) | relative viability ([3]; first compound 0.1265 µM) | relative viability ([3]; first compound 0.4 µM) | relative viability ([3]; first compound 1.265 µM) | relative viability ([3]; first compound 4 µM) | relative viability ([4]; first compound 0.08 µM) | relative viability ([4]; first compound 0.253 µM) | relative viability ([4]; first compound 0.8 µM) | relative viability ([4]; first compound 2.53 µM) | relative viability ([4]; first compound 8 µM)
1 | NCI-H23 | 0.893 | 0.572 | 0.797 | 0.614 | 0.696 | 0.84 | 0.939 | 0.8 | 0.748 | 0.814 | 0.934 | 0.798 | 0.73 | 0.779 | 0.728 | 1.13 | 0.999 | 1.08 | 0.894 | 0.959
2 | NCI-H322M | 0.948 | 0.755 | 0.798 | 0.641 | 0.766 | 0.783 | 0.725 | 0.929 | 0.769 | 0.678 | 0.251 | 0.267 | 0.259 | 0.269 | 0.263 | 1.07 | 1.07 | 0.969 | 0.832 | 0.856
3 | NCI-H358 | 0.844 | 0.835 | 0.902 | 0.952 | 0.626 | 0.365 | 0.27 | 0.36 | 0.319 | 0.278 | 0.177 | 0.157 | 0.182 | 0.154 | 0.22 | 0.783 | 0.597 | 0.718 | 0.71 | 0.606
4 | NCI-H441 | 0.646 | 0.719 | 0.843 | 0.746 | 0.928 | 0.939 | 0.855 | 0.892 | 0.755 | 0.72 | 0.556 | 0.552 | 0.551 | 0.673 | 0.445 | 1.24 | 0.917 | 1.03 | 0.947 | 0.862
5 | NCI-H460 | 0.54 | 0.495 | 0.476 | 0.382 | 0.374 | 0.706 | 0.32 | 0.629 | 0.515 | 0.49 | 0.448 | 0.546 | 0.613 | 0.499 | 0.468 | 1.15 | 0.987 | 0.975 | 1.09 | 0.914
6 | NCI-H520 | 0.882 | 1.05 | 0.957 | 0.781 | 1.03 | 0.56 | 0.556 | 0.831 | 0.646 | 0.54 | 0.363 | 0.208 | 0.229 | 0.284 | 0.262 | 0.914 | 0.798 | 0.932 | 0.721 | 0.912
7 | NCI-H596 | 0.56 | 0.46 | 0.446 | 0.491 | 0.452 | 0.98 | 0.703 | 0.68 | 0.757 | 0.704 | 0.677 | 0.645 | 0.524 | 0.524 | 0.648 | 0.949 | 1.17 | 0.809 | 0.799 | 0.701
8 | NCI-H647 | 1.05 | 1.01 | 1.06 | 1.26 | 1 | 0.607 | 0.293 | 0.885 | 0.595 | 0.452 | 0.172 | 0.191 | 0.163 | 0.169 | 0.141 | 1.4 | 1.2 | 1.27 | 1.17 | 1.12
9 | NCI-H650 | 1.15 | 0.922 | 1.1 | 0.997 | 0.975 | 0.456 | 0.514 | 0.509 | 0.499 | 0.417 | 0.49 | 0.449 | 0.464 | 0.431 | 0.448 | 1.06 | 1.19 | 1.02 | 1.1 | 1.05
10 | NCI-H661 | 0.82 | 0.79 | 0.812 |  | 0.474 | 0.278 | 0.283 | 0.28 | 0.288 | 0.275 | 0.927 | 0.943 | 0.88 | 0.835 | 0.748 | 0.996 | 1.06 | 1.05 | 0.991 | 1.02
11 | NCI-H727 | 0.54 | 0.618 | 0.62 | 0.599 | 0.471 | 0.41 | 0.461 | 0.491 | 0.504 | 0.688 | 0.4 |  | 0.338 | 0.321 | 0.365 | 1.09 | 0.856 | 1.06 | 0.778 | 0.898
12 | NCI-H838 | 1.01 | 0.961 | 0.938 | 0.883 | 0.899 | 0.657 | 0.379 | 0.695 | 0.602 | 0.622 | 0.347 | 0.336 | 0.251 | 0.231 | 0.261 | 1.13 | 1.11 | 1.06 | 1.02 | 1.06
13 | NCI-H1355 | 0.783 | 0.862 | 0.819 | 0.763 | 0.797 | 0.424 | 0.426 | 0.475 | 0.456 | 0.44 | 0.712 | 0.728 | 0.678 | 0.667 | 0.638 | 1.08 | 1.01 | 0.977 | 0.951 | 0.883
14 | NCI-H1395 | 1.05 | 1.3 | 1.08 | 1.19 | 0.888 | 0.473 | 0.459 | 0.451 | 0.453 | 0.431 | 0.48 | 0.425 | 0.374 | 0.37 | 0.407 | 0.993 | 1.1 | 0.938 | 0.92 | 1.08
15 | NCI-H1437 | 0.926 | 0.914 | 1.02 | 0.904 | 0.907 | 0.314 | 0.251 | 0.343 | 0.283 | 0.306 | 0.379 | 0.419 | 0.438 | 0.399 | 0.351 | 1.3 | 1.23 | 1.3 | 1.25 | 1.29
16 | NCI-H1563 | 0.902 | 0.962 | 1.07 | 1.13 | 0.905 | 0.71 | 0.617 | 0.647 | 0.635 | 0.692 | 0.459 | 0.488 | 0.539 | 0.433 | 0.454 | 0.952 | 0.919 | 0.903 | 0.929 | 0.866
